These results are taken from ChEMBL document CHEMBL4390703, “Anti-HAV evaluation and molecular docking of newly synthesized 3-benzyl(phenethyl)benzo[g]quinazolines” (Bioorg Med Chem Lett, 2019).

Molecules are shown by their SMILES.

The nature of data set [1]: Cytotoxicity against African green monkey Vero cells measured after 48 hrs by crystal violet staining based colorimetric method. The settings on record: chlorocebus sabaeus; for MNTC at 48 h: read-out: MNCC. It counts as cell-based.
Data set [2] can be described thus: Inhibition of HAV protease 3C expressed in Escherichia coli BL21(DE3) pLysS using Dabcyl-GLRTQSND (edans) G as substrate preincubated for 3 mins before enzyme addition by fluorescence method. Also noted: species or system Hepatovirus A.
The nature of data set [3]: Antiviral activity against HAV HM175 infected in African green monkey Vero cells assessed as inhibition of virus-induced cytopathic effect at MNCC measured after 48 hrs by crystal violet staining based assay relative to control. The format is functional, Human hepatitis A virus, Hu/Australia/HM175/1976. Background: Damage to the host cells serves as the signal in cytopathic effect assays.

Data set [4] deals with Hepatovirus A. Description: Inhibition of HAV protease 3C expressed in Escherichia coli BL21(DE3) pLysS at 10 uM using Dabcyl-GLRTQSND (edans) G as substrate preincubated for 3 mins before enzyme addition by fluorescence method relative to control.
The subject of data set [5] is Hepatovirus A. The data set is described as follows: Inhibition of HAV protease 3C expressed in Escherichia coli BL21(DE3) pLysS at 100 uM using Dabcyl-GLRTQSND (edans) G as substrate preincubated for 3 mins before enzyme addition by fluorescence method relative to control.
Data set [6] is described as follows: Antiviral activity against HAV HM175 infected in African green monkey Vero cells assessed as inhibition of virus-induced cytopathic effect measured after 48 hrs by crystal violet staining based assay. The format is functional, Human hepatitis A virus, Hu/Australia/HM175/1976.
Data set [7] concerns Hepatovirus A. The data set is described as follows: Inhibition of HAV protease 3C expressed in Escherichia coli BL21(DE3) pLysS at 0.1 uM using Dabcyl-GLRTQSND (edans) G as substrate preincubated for 3 mins before enzyme addition by fluorescence method relative to control.
Data set [8] can be described thus: Selectivity index, ratio of CC50 for African green monkey Vero cells to EC50 for HAV HM175 infected in African green monkey Vero cells. The format is toxicity. The following applies: for selectivity ratio: Vero cells, read-out: Ratio CC50/EC50; for Ratio CC50/EC50: vero.
Data set [9] relates to Hepatovirus A. Description: Inhibition of HAV protease 3C expressed in Escherichia coli BL21(DE3) pLysS at 1 uM using Dabcyl-GLRTQSND (edans) G as substrate preincubated for 3 mins before enzyme addition by fluorescence method relative to control.
[10] abbreviates: Hepatovirus A, Hu/Australia/HM175/1976, Vero, 48 h, read-out: EC50.

By CC50 is commonly meant the concentration that lowers cell viability or growth by half. By IC50 is commonly meant the concentration that inhibits the measured activity by half. In general, inhibition refers to the percentage by which the read-out fell short of the control. The EC50 is the concentration that produces a half-maximal response.

In data set [1], `O=c1c2cc3ccccc3cc2[nH]c(=S)n1Cc1ccccc1` had a CC50 at 48 h of 180 µM. The MNTC at 48 h in [1] worked out at 15.6 µg/mL. For the same compound, in data set [2], the 50% inhibitory concentration (IC50) lay in the range of 3.3 to 36.7 µM. The “inhibition (INH)” value in [3] is given as 67.18%. Moreover, the inhibition in data set [4] amounted to 64.8%; in [5], 86%; in data set [7], 9.85%; in data set [9] it was 37.5%. Moreover, the concentration giving a half-maximal response (EC50) in data set [6] (setting [10]) was determined as 36.7 µM. Further, the selectivity ratio in data set [8] is 4.91.

In the case of `O=c1c2cc3ccccc3cc2nc(SCc2ccc(Cl)cc2)n1CCc1ccccc1`, in [1], half-maximal cytotoxicity (CC50 at 48 h) was put at 101 µM and the MNTC at 48 h turned out to be 15.6 µg/mL. In addition, the “inhibition (INH)” value in [3] is given as 41.26%. Further, the concentration giving a half-maximal response (EC50) in data set [6] (setting [10]) is 57.9 µM. The selectivity ratio in data set [8] worked out at 1.75.

For `N#Cc1cccc(CSc2nc3cc4ccccc4cc3c(=O)n2CCc2ccccc2)c1`, in data set [1], the CC50 at 48 h stood at 163 µM and the MNTC at 48 h is 31.2 µg/mL. For the same compound, the “inhibition (INH)” value in data set [3] amounted to 23.49%. Besides, the EC50 in data set [6] (setting [10]) was 130 µM. Also, the selectivity ratio in data set [8] amounted to 1.25.

For `COc1cccc(CSc2nc3cc4ccccc4cc3c(=O)n2Cc2ccccc2)c1`, in data set [1], the midpoint of cytotoxicity, the CC50 at 48 h, lay at 82.7 µM and the MNTC at 48 h is 7.8 µg/mL. Besides, in [3], the “inhibition (INH)” value is 24.48%. The EC50 in data set [6] (setting [10]) is 67.8 µM. Moreover, in data set [8], the selectivity ratio was 1.22.

With `NNc1nc2cc3ccccc3cc2c(=O)n1Cc1ccccc1`, in [1], it took 291 µM to reach half-maximal cytotoxicity (CC50 at 48 h). Moreover, in data set [1], the MNTC at 48 h came out at 15.6 µg/mL. Also, the IC50 in data set [2] was in the range of 22.4 to 27.6 µM. The “inhibition (INH)” value in data set [3] stood at 63.58%. Further, the inhibition in data set [4] stood at 31.1%; in data set [5], 73.1%; in [7], 2.65%; in data set [9] it was 16.3%. Besides, the concentration for a half-maximal effect (EC50) in data set [6] (setting [10]) is 27.6 µM. Moreover, the selectivity ratio in [8] was determined as 10.5.

Take `N#Cc1cccc(CSc2nc3cc4ccccc4cc3c(=O)n2Cc2ccccc2)c1`: in [1], the CC50 at 48 h came out at 380 µM and the MNTC at 48 h turned out to be 62.5 µg/mL. Moreover, in data set [3], the “inhibition (INH)” value stood at 41.94%. For the same compound, the EC50 in [6] (setting [10]) is 164 µM. Further, the selectivity ratio in data set [8] came out at 2.32.

Turning to `N#Cc1ccccc1CSc1nc2cc3ccccc3cc2c(=O)n1Cc1ccccc1`, in data set [1], the CC50 at 48 h amounted to 53.5 µM and the MNTC at 48 h was found to be 7.8 µg/mL. Besides, the “inhibition (INH)” value in [3] came to 39.58%. In data set [6] (setting [10]), the EC50 was determined as 43.7 µM. Moreover, in data set [8], the selectivity ratio stood at 1.23.

For the compound `O=c1c2cc3ccccc3cc2nc(SCc2ccc([N+](=O)[O-])cc2)n1Cc1ccccc1`, in data set [1], the midpoint of cytotoxicity, the CC50 at 48 h, lay at 48.2 µg/mL and the MNTC at 48 h worked out at 31.2 µg/mL. The “inhibition (INH)” value in [3] was 0%. The EC50 result in data set [6] (vero) is on record as “Not Active”. Also, the “Ratio CC50/EC50” value in data set [8] is on record as “Not Active”.

Regarding `COc1cccc(CSc2nc3cc4ccccc4cc3c(=O)n2CCc2ccccc2)c1`, in [1], the midpoint of cytotoxicity, the CC50 at 48 h, lay at 145 µM and the MNTC at 48 h came out at 31.2 µg/mL. The “inhibition (INH)” value in data set [3] was 54.32%. Further, the EC50 in [6] (setting [10]) came to 61.7 µM. Further, in data set [8], the selectivity ratio was 2.36.

On to `N#Cc1ccc(CSc2nc3cc4ccccc4cc3c(=O)n2CCc2ccccc2)cc1`, for which, in data set [1], the midpoint of cytotoxicity, the CC50 at 48 h, lay at 86.3 µg/mL and the MNTC at 48 h worked out at 15.6 µg/mL. For the same compound, the “inhibition (INH)” value in [3] came to 2.88%. Moreover, in [6] (vero), the concentration for a half-maximal effect (EC50) entry is “Not Active”. Besides, in data set [8], the “Ratio CC50/EC50” value is listed as “Not Active”.

In turn, `NNc1nc2cc3ccccc3cc2c(=O)n1CCc1ccccc1` had a CC50 at 48 h in data set [1] of 569 µM. The MNTC at 48 h in data set [1] is 31.2 µg/mL. The compound further had an IC50 in data set [2] of 5.92 to 18 µM. Moreover, in data set [3], the “inhibition (INH)” value was 79.81%. Further, the inhibition was determined as 51.5% in [4], 78.8% in data set [5], 13.3% in data set [7] and 33% in [9]. Moreover, the EC50 in data set [6] (setting [10]) came to 18 µM. In addition, the selectivity ratio in data set [8] was 31.6.

Compound `NC12CC3CC(CC(C3)C1)C2` [AMANTADINE] had a CC50 at 48 h in data set [1] of 2020 µM. Further, 37.2 µM corresponded to half-maximal inhibition in data set [2] (IC50). The concentration for a half-maximal effect (EC50) in data set [6] (setting [10]) was 37.3 µM. The selectivity ratio in data set [8] is 54.1.

With `C=CCSc1nc2cc3ccccc3cc2c(=O)n1CCc1ccccc1`, in data set [1], half-maximal cytotoxicity (CC50 at 48 h) was put at 164 µg/mL and the MNTC at 48 h came out at 62.5 µg/mL. Also, the “inhibition (INH)” value in data set [3] is recorded as 3.54%. The EC50 entry in data set [6] (vero) is reported as “Not Active”. Further, the “Ratio CC50/EC50” value in data set [8] is “Not Active”.

As for `N#Cc1ccc(CSc2nc3cc4ccccc4cc3c(=O)n2Cc2ccccc2)cc1`, in data set [1], it took 206 µM to reach half-maximal cytotoxicity (CC50 at 48 h) and the MNTC at 48 h was found to be 31.2 µg/mL. For the same compound, the “inhibition (INH)” value in data set [3] was 23.82%. The EC50 in data set [6] (setting [10]) was determined as 152 µM. Besides, the selectivity ratio in [8] stood at 1.35.

As to `Cc1cccc(CSc2nc3cc4ccccc4cc3c(=O)n2Cc2ccccc2)c1`, in data set [1], the 50% cytotoxic concentration (CC50) at 48 h stood at 506 µM and the MNTC at 48 h was 62.5 µg/mL. Besides, the “inhibition (INH)” value in [3] was 58.76%. Further, in data set [6] (setting [10]), the concentration for a half-maximal effect (EC50) stood at 90.3 µM. The selectivity ratio in data set [8] worked out at 5.61.

As to `O=c1c2cc3ccccc3cc2nc(SCc2ccccc2)n1Cc1ccccc1`, in [1], it took 419 µM to reach half-maximal cytotoxicity (CC50 at 48 h) and the MNTC at 48 h stood at 62.5 µg/mL. Besides, in [3], the “inhibition (INH)” value turned out to be 42.31%. The EC50 in data set [6] (setting [10]) worked out at 196 µM. In data set [8], the selectivity ratio worked out at 2.14.

Regarding `O=c1c2cc3ccccc3cc2[nH]c(=S)n1CCc1ccccc1`, in data set [1], the cytotoxic concentration (CC50) at 48 h amounted to 391 µM and the MNTC at 48 h turned out to be 31.2 µg/mL. Also, in [3], the “inhibition (INH)” value is on record as 46.36%. Also, the EC50 in data set [6] (setting [10]) turned out to be 128 µM. In [8], the selectivity ratio came to 3.06.

For the compound `Cc1ccccc1CSc1nc2cc3ccccc3cc2c(=O)n1CCc1ccccc1`, in [1], the 50% cytotoxic concentration (CC50) at 48 h stood at 86.8 µM and the MNTC at 48 h was 15.6 µg/mL. Also, the “inhibition (INH)” value in data set [3] turned out to be 38.09%. The EC50 in [6] (setting [10]) was 69.8 µM. The selectivity ratio in [8] was found to be 1.24.
